Source: patent publication US9855538B2, “Ultrasonic method and apparatus for producing particles having a controlled size distribution” (The Board of Trustees of the University of Illinois, priority 2013, dated 2018)
Each block holds one compound with its values, some of them ahead of it.

Columns and labels:
[1] = Particle size and morphology of drug particles from antisolvent sonocrystallization (optical microscope, SEM, dynamic light scattering); type: physicochemical
From the text: The application of ultrasound to the induction of nucleation of drug crystals is presented in the following examples. The apparatus shown in FIG. 1 was employed for all of the experiments, using a titanium-aluminum alloy flow-through ultrasonic horn (Sonics & Materials VCX750) having a resonance frequency of 20 kHz, a 1 cm^2 tip and an outlet diameter of 4 mm. Horn intensities were calibrated by calorimetry with water. A crystallization tube having an outer diameter (OD) of 13 mm was used in each experiment. Each has different solubility characteristics and consequently its own solvent/antisolvent system. Fine particles of several drug materials, including aspirin (acetylsalicylic acid), acetaminophen (also called paracetamol, the active ingredient in Tylenol), and folic acid (vitamin B9), were prepared by antisolvent sonocrystallization.
Particles were imaged using a Canon PC1015 digital camera attached to a Zeiss Axioskop optical/fluorescence microscope with polarization analyzer or with a Hitachi 4700 SEM. Particle size distributions were measured by dynamic light scattering when possible.

[2] = Solubility of the drug in solvent / antisolvent; type: physicochemical
From the text: The solute employed in the process may be any material for which a suitable solvent and antisolvent may be found. The suitability of a solvent/antisolvent system may be evaluated by comparing the solubility of the solute in the solvent with the solubility of the solute in the antisolvent. For example, the solute may have a first solubility in the solvent and a second solubility in the antisolvent, where a ratio of the first solubility to the second solubility is at least about 10:1, or at least about 100:1. A higher ratio may permit a higher particle yield to be achieved for a given concentration of solute in the solvent. Accordingly, the ratio may also be at least about 200:1 or at least about 400:1, but is typically no higher than about 800:1. As would be recognized by one of ordinary skill in the art, the solubility of solute in a given solvent may be represented in terms of milligrams of solute per milliliter of the solvent (mg/mL), and may be determined by HPLC or gravimetric analysis.

Resultant particle morphology ([1]; antisolvent sonocrystallization, 20 kHz, 15 W, solvent/antisolvent per experiment (Tables 1, 2)): platelike
crystal length in the largest dimension ([1]; ethanol solution, hexanes as antisolvent, FIGS. 6A and 6B): a few
Compound: CC(=O)Nc1ccc(O)cc1 [acetaminophen]

concentration of saturated ethanol solution ([2]; ethanol): about 400 mg/mL
Compound: CC(=O)Oc1ccccc1C(=O)O [aspirin, acetylsalicylic acid]

crystal diameter ([1]; 20% aqueous ammonium hydroxide solvent, acetone antisolvent, by SEM (FIGS. 8A-8B)): about 100 nm
particle morphology (optical microscope) ([1]; saturated sodium bicarbonate solution, H2SO4 antisolvent, FIGS. 7C-7D): large needles
particle size (optical microscope) ([1]; saturated sodium bicarbonate solution, HCl antisolvent, FIGS. 7A-7B): too small to resolve optically
solubility in acetone ([2]; acetone): negligible
solubility in base ([2]; base (as the folate ion)): dissolves readily
solubility in water ([2]; neutral to moderately acidic water): very nearly insoluble
solubility in water ([2]; very low pH): quite soluble
Compound: Nc1nc2ncc(CNc3ccc(C(=O)N[C@@H](CCC(=O)O)C(=O)O)cc3)nc2c(=O)[nH]1 [Folic acid, folic acid]
